# Columns and labels:
# Na—K—Cl cotransport = Na—K—Cl cotransport measured by 86Rb uptake in Jurkat cells; type: cell-based; details: 1 μm isoproterenol, p<0.001
# Description: Jurkat cells were centrifuged for 15 min at 300×g and resuspended in Dulbecco's modified Eagle's medium (DMEM; ionic composition: 1.8 mM CaCl2, 5.4 mM KCl, 0.8 mM MgSO4, 110 mM NaCl, 0.9 mM NaH2PO4, 0.25 µM Fe(NO3)3; GIBCO, Grand Island, N.Y.) with 10 mM N-2 hydroxyethylpiperazine-N′-2 ethanesulfonic acid (HEPES), pH 7.4 at a final concentration of 5-10×10^6 cells/ml. […] Assays were stopped by aliquoting 100 μl of the reaction mixture into chilled microcentrifuge tubes prefilled with 100 μl of 3 mM BaCl2 and 0.1 mM of ouabain solution layered over 100 μl of a 3:1 of mazola oil to n-butylphthalate mixture. Cells were rapidly sedimented through the oil interface (1 min at 15,000 g). Centrifuge tube tips containing the tip pellets were clipped in the vials and radioactivity was determined by scintillation spectroscopy (Beckman LS 6000).
# [1] = test system: cAMP-dependent protein kinase (PKA); assay: cAMP-dependent protein kinase (PKA) activity in digitonin-permeabilized Jurkat cells; type: cell-based; details: 5× rat C18 purified Reptimed or 1 μm isoproterenol, basal activity 9 +/−1
# Description: Cyclic AMP-dependent protein kinase (PKA) activity was assayed in digitonin-permeabilized cells. Jurkat cells were centrifuged at 300×g for 15 min and resuspended in Hanks' balanced salt solution without calcium and with 0.5 mM EDTA, 1 mM magnesium sulfate, and 1 mg/100 ml digitonin. Jurkat cells were incubated for 15 min at 4° C. and then washed twice as above in Hanks' solution without digitonin and finally resuspended at a final concentration of 10 to 20×10^6 cells/ml for assay. Cells were either untreated, treated with 5×rat C18 purified […], or with 1 μm isoproterenol, or with both 5[…] and 1 μm isoproterenol. PKA activity was assessed by the phosphorylation of the synthetic PKA substrate (Kemptide-Sigma Chemical Corporation, St. Louis, Mo.). Phosphorylated substrate was separated by adherence to phosphocellulose. After six washes in phosphoric acid, radioactivity on the phosphocellulose strips was assessed by scintillation spectroscopy.
smiles,measurement,setting,value
CC(C)NCC(O)c1ccc(O)c(O)c1 (centres unmarked) [isoproterenol],Na—K—Cl cotransport (86Rb uptake),Na—K—Cl cotransport,38 +/−8 % of control
same,PKA activity,[1],significant increase

# Source: US20010022976A1, “Immunosuppressive and tumour-suppressive bone marrow factor” (London Health Sciences Centre, priority 1995, published 2001)
